Laboratory results as given in patent US5538712A, “Cyclopentadienylcarbonyl 99MTC complexes, process for their production as well as their use in diagnostics” (Institut Fur Diagnostikforschung GmbH/an der Freien …, priority 1990, dated 1996).
Read-outs that look alike come from different tables or passages of the source.

Experiments:
[1] = In vivo SPECT study of cerebral blood flow in rabbits; parameters: species or system rabbits (New Zealander); details: for contrast [brain/background]: rabbit SPECT, 8 minutes p.i., 15 minutes p.i.; for contrast [brain/background] / cerebral uptake: HM-PAO 59 MBq, cytectrene 14 MBq; for cerebral uptake: rabbit, i.v., test from 8 minutes p.i., from 15 minutes p.i., 2400 seconds
Method: In an in vivo study on rabbits (New Zealander, breeding by Schering AG Berlin, approximately 4 kg, male), the cerebral blood flow of commercially available HM-PAO was compared with the N-methyl-piperidin-4-ol-cytectrenecarboxylic acid ester (produced analogously to example 6).
The study was made with a SPECT camera of Apex 409 type.
After nembutal anesthesia, the animal was intravenously administered 1 ml of an isotonic, aqueous, sterile solution of ^99m Tc-HMPAO or said cytectrene derivative.
The recording technique and the results are described by the following table.

[2] = cited from earlier work
[3] = clinical use, because of insufficient stability; cited from earlier work
[4] = Organ distribution of Tc-labeled cytectrene derivatives vs pertechnetate (FIG. 1); format: in vivo, mice and rats, partially rabbits; details: pertechnetate for comparison
Method: (§1) The organ distributions in mice and rats as well as partially in rabbits were tested by the technetium-labeled cytectrene derivatives. The organ distribution of the ^99m Tc-labeled cytectrene derivatives is a function of the substituent on the cyclopentadienyl ring system.
FIG. 1 indicates the organ distribution of various cytectrene derivatives. For comparison, the organ distribution of pertechnetate was also recorded in this table. From the organ concentrations, it can clearly be recognized that the organ distribution of the cytectrene derivatives drastically differs from the distribution after administration of pertechnetate. With pertechnetate, the organ with the highest radioactivity concentration is blood (2.6% of dose/% body weight). On the other hand, the ^99m Tc cytectrene derivatives show a pronounced affinity for other, respectively different organs. The affinity for the individual organ is clearly dependent on the side chain of the cytectrene compound.

[5] = Organ distribution in mice of 99mTc-acetylcymantrene; format: in vivo
Method: as §1

[6] = Chemical stability, decomposition by chromatography; format: physicochemical; details: after 24 hours, chromatographically
Description: This lipophilic ^99m Tc-compound can be obtained in pure form by elution of the corresponding silica gel fraction (RF =0.36), e.g., with ethanol. The radiochemical purity is established by rechromatography of the eluate.

[7] = 99mTc concentration in rat brain and brain/blood concentration quotient (FIGS. 2 and 3); format: in vivo
Method: FIG. 2 graphically illustrates the results of tests on ^99m Tc concentration in the brain (% dose/% weight). In the experiments, the rats (n=4) intravenously received about 5 μCi of the Tc-99-labeled ester dissolved in 0.1 ml of EtOH/0.9% NaCl per animal. The esters, i.e., 4-pip-ester, 3-pip-ester and quin.-ester, were obtained from cytectrene-carboxylic acid and the following, respectively: 4-hydroxy-N-(methyl)-piperidine, 3-hydroxy-N-(methyl)-piperidine and 3-quinuclidinol. 15 minutes after HM-PAO administration, the brain concentration is at 1.7% dose/% weight. […] The rats (n=4) intravenously received about 5 μCi of the Tc-99-labeled ester dissolved in 0.1 ml of EtOH/0.9% NaCl per animal. The esters tested were obtained from cytectrenecarboxylic acid and 4-hydroxy-N-(methyl)-piperidine, 3-hydroxy-N-(methyl)-piperidine and 3-quinuclidinol, respectively. 15 minutes after HM-PAO administration, the brain/blood quotient is at 1.5:1.

Q: Which “contrast [brain/background]” value [1] does the source give for C/C(=N\O)C(C)NCC(C)(C)CNC(C)/C(C)=N/O (centres unmarked) [HM-PAO, hexamethyl-propylenamine oxime] here?
A: Its value is 0.98.

Q: What about the cerebral uptake [1] of the same molecule?
A: Its cerebral uptake is 5.9 % of the administered activity.

Q: And the “concentration in the brain” value ([2]; comparable measurements for known compounds, L. Bacciottini et al. 1990)?
A: The value was “around 1.7 % dose/% body weight”.

Q: What about the “99mTc concentration in the brain” value ([2]; rat, 15 minutes after HM-PAO administration) of the same molecule?
A: The value was 1.7 % dose/% weight.

Q: What about the “time after labeling within which it has to be administered” value [3] of the same molecule?
A: Its value is ≤ 30 min.

Q: For [O]=[99Tc](=[O])(=[O])[O-] [pertechnetate, ^99m Tc-pertechnetate], which “radioactivity concentration in blood (organ with the highest concentration)” value [4] is on record?
A: Its value is 2.6 % of dose/% body weight.

Q: With CC(=O)[C]1([Tc](=[C]=O)(=[C]=O)=[C]=O)C=CC=C1 [Example 1a, Tc-99m Acetyl-cytectrene] as the molecule, how does the organ distribution [5] read?
A: Its organ distribution is “preferred concentration in liver and suprarenal glands”.

Q: What about the “chemical stability of the labeled compound” value [6] of the same molecule?
A: The value was “chemically stable, since after 24 hours, no decomposition is chromatographically detectable”.

Q: And the “chemical stability of the labeled compound” value ([6]; listed as Example 1b)?
A: The value was “chemically stable, after 24 hours, no decomposition is chromatographically detectable”.

Q: For “cyclopentadienylcarboxylic acid-(N-methyl-piperidinol)-4-ester-^99m technetium-tricarbonyl complex”, which “concentration ratio of brain/blood, improvement factor over HM-PAO” value ([7]; compared with HM-PAO complexes) is on record?
A: The value was ~10 factor.

Q: What about the “concentration in the brain” value ([7]; i.v., about 5 μCi) of the same molecule?
A: The value was “about 4 % dose/% body weight”.

Q: What about the “contrast [brain/background]” value [1] of the same molecule?
A: The value was 0.98.

Q: What about the cerebral uptake [1] of the same molecule?
A: The cerebral uptake was 7.5 % of the administered activity.

Q: And the “visual delimitability of the brain in SPECT tests” value ([1]; rabbits, 14 MBq, compared with HM-PAO complex)?
A: Its value is “more clearly visual delimitability of the brain in SPECT tests”.
